# Results published in patent US12002595B2, “Separation of metal ions by liquid-liquid extraction” (priority 2016, dated 2024).
# Like-named read-outs stand apart in the source and are kept apart here.
# How the values were obtained:
# [1] = Extraction by HDEHP as a function of pH with hold-back reagent
# Method: (§1) All liquid-liquid extractions were conducted using a 1:1 organic to aqueous phase ratio for a total volume of 1 mL. Samples were pH adjusted by HNO3 and prepared for a final concentration of 1.0 M sodium lactate, 40 mM of hold-back reagent (160 mM in the case of the HOPO monomer), and 2.0 M Na^+. The concentration of the trivalent f-element was dependent on the availability and radioactivity of the isotopes. The organic phase consisted of 0.5 M HDEHP in kerosene. All samples were incubated in a thermostatic shaker held at 28° C. and rocked at 280 rpm for 90 minutes. To ensure complete phase separation, samples were left overnight at room temperature to equilibrate. Radioactive samples were analyzed by liquid scintillation counting (LSC). The analytical protocol consisted of diluting 10 uL of radioactive sample into 10 mL of Ultima Gold™. Ultima Gold™ is a commercially available analytical reagent commonly used for LSC. The resulting analytical samples were shaken for 10 min prior to counting on a Perkin-Elmer Packard Tri-Carb instrument (model B4430).
# (§2) Data was analyzed by the distribution ratio (Dm), separation factor (SFm1/m2) and extraction percentage (% Extraction) as defined by Equations (6), (7) and (8), respectively. Equation (8) uses concentrations of the metal in each phase since the aqueous: organic ratio was 1. Both the organic and aqueous phases were analyzed after liquid-liquid extraction and phase separation. These calculation methods rely on the assumptions that no metal (M) is lost to sorption or precipitation and that no volume variation occurred during the mass transfer between the aqueous and organic phases.
# (§3) In FIG. 23, aqueous phase: [ligand]=40 mM, buffer sodium lactate/sodium nitrate. Organic phase: [HDEHP]=0.5 M, kerosene diluent. T=25° C. O/A=1, one contact. Initial metal concentrations: [Ac-225]=0.4 nM, [Am-243]=40.4 nM, or [Gd]=500 μM (spiked with Gd-153 for LSC measurements).
# [2] = Extraction by HDEHP with 1 mM 343HOPO in 0.1 M HNO3 and 1.9 M NaNO3
# Method: Aqueous phase: 1 mM 343HOPO in 0.1 M HNO3 and 1.9 M NaNO3. Organic phase: HDEHP in kerosene.
# A log scale is used for clarity. See FIGS. 58A and 58B for results as a function of the phase ratio.
# For Example 20—Example 24, pH measurements were performed with a glass electrode (Metrohm-Micro Combi-response to [H+]) calibrated at 25.0° C. using three NIST standards. Extraction samples were analyzed by liquid scintillation counting (LSC). The distribution coefficient, D(M), of a given metal, M, is defined in Eq. 1, where [M]organic and [M]aqueous are the respective total concentrations of M in the organic and aqueous layers, after extraction. Both concentrations are proportional to the volumetric activity (in Bq/L) determined by LSC. The separation factor, SFM1/M2, between two metals, M1 and M2, and extraction yield were calculated according to Eq. 2 and Eq. 3, respectively.
# In a typical experiment, the solvent (extractant diluted in kerosene) was pre-conditioned by shaking one volume of solvent with three volumes of aqueous phase (typically HNO3) at room temperature for 1 h, thrice. For radioisotope extractions, at least 400 μL aqueous phase (typically containing HNO3, a chelator and a radioisotope) and solvent were placed in air-tight screw-capped plastic tubes, triply-contained, and shaken in a thermoshaker at 300 rpm, 25° C., for at least 30 min. Samples were then centrifuged for 5 min at 3000 rpm and phases separated before analysis. LSC analyses were performed on a Packard Tri-Carb B4430 instrument (Perkin Elmer) after mixing sample aliquots or sample dilution aliquots (10 to 200 μL) with 10 mL of scintillation cocktail (UltimaGold LLT). Samples were counted for at least 6 min and results were background subtracted. The analytical samples contained between 0 and 800,000 CPM. Mixtures of ^249Bk and ^249Cf were analyzed using α/β discrimination and energy windows were set to 0-50 keV for low-energy β particles of ^249Bk and 50-1000 keV for α particles of ^249Cf. ^243Am and ^225Ac samples were counted at secular equilibrium.
# [3] = Eu(III), cited from earlier work
# [4] = Extraction of plutonium(IV) by HDEHP as a function of pH with hold-back reagent; conditions: for % Extraction: 40 mM hold-back reagent, 0.5 M HDEHP
# Method: as §1, §2
# In FIG. 18, aqueous phase: [ligand]=40 mM, buffer sodium lactate/sodium nitrate, organic phase: [HDEHP]=0.5 M, kerosene diluent. T=25° C. O/A=1, one contact. Initial metal concentrations: [Pu-242]=5 μM. Phases analyzed after one contact. Contact time: 30 min. Limit of detection: 0.03% of the initial Pu-242 activity. Data for separation of tetravalent metal ions from trivalent metal ions using 3,4,3-LI(1,2-HOPO) as a hold-back reagent for tetravalent metal ions are shown in TABLE 0.1.
# [5] = cited from earlier work
# [6] = Extraction by HDEHP as a function of pH with hold-back reagent; remark: listed apart in the source
# Method: as §1, §2, §3
# as §3, with “17,” for “23,”, “nitrate, organic” for “nitrate. Organic”, “measurements). Separation factor=ratio M1/M2 in the final organic phase/ratio M1/M2 in the initial aqueous phase. […]” for “measurements).”
# [7] = highest value reached, HDEHP/343HOPO-HNO3 system
smiles,measurement,setting,value
"O=C(NCCCN(CCCCN(CCCNC(=O)c1cccc(=O)n1O)C(=O)c1cccc(=O)n1O)C(=O)c1cccc(=O)n1O)c1cccc(=O)n1O [3,4,3-LI(1,2-HOPO)]",extraction of Am^3+,"[1]; pH higher than 1, 40 mM ligand, 0.5 M HDEHP",No extraction
same,SFBk/Lu,"[2]; single step, room temperature, HDEHP-HNO3-343HOPO system","≤ 320,000"
same,log β111,[3]; I=0.1 M at 25° C.,24.8
same,% Extraction,[4]; pH 0.25,0.00%
same,% Extraction,[4]; pH 0.85,0.00%
same,% Extraction,[4]; pH 1.78,0.00%
same,% Extraction,[4]; pH 2.71,0.00%
same,% Extraction,[4]; pH 2.87,0.00%
same,% Extraction,[4]; pH 3.62,0.00%
same,% Extraction,[4]; pH 4.52,0.00%
same,"extraction yield of Pu^4+ (upper limit, instrumental detection limit)","[4]; value plotted on FIG. 18, all tested pH",≤ 0.03%
same,Last pKa,[5],6.64
same,overall acidity (ΣpKa),"[5]; literature value compared with ΣpKa5-8 of 3,4,3-LI(CAM)",21.2
same,SFAc/Am,[6]; [7],"130,000"
same,SFAc/Gd,[6]; [7],"1,300,000"
same,SFAc/Am,[6]; pH 0.9 (±0.1),3.99 * 10^2
same,SFAc/Am,[6]; pH 1.5 (±0.1),9.06 * 10^3
same,SFAc/Gd,[6]; pH 1.5 (±0.1),6.55 * 10^2
same,SFAc/Am,[6]; pH 3.5 (±0.1),8.13 * 10^4
same,SFAc/Gd,[6]; pH 3.5 (±0.1),4.61 * 10^5
same,SFAc/Am,[6]; pH 4.0 (±0.1),1.28 * 10^5
same,SFAc/Gd,[6]; pH 4.0 (±0.1),1.33 * 10^6
same,extraction of actinium,"[6]; pH higher than 1.5, 40 mM ligand, 0.5 M HDEHP",quantitative extraction
same,SFAc/Pu,"[6]; single step, initial Pu/Ac ratio ~10,000 mol/mol, 40 mM chelator, 0.5 M HDEHP","at least 1,000,000"
same,separation factor between Ac and relevant metal impurities,[6]; summary statement,10^6
"O=C(O)CN(CCN(CC(=O)O)CC(=O)O)CCN(CC(=O)O)CC(=O)O [DTPA, Diethylenetriaminepentaacetic acid, reference compound]",maximum metal extraction of Am(III),[1]; around pH 1.5,78%
same,extraction of Am(III),[1]; at pH 4,less than 10%
same,Extraction of Gd(III),[1]; until after pH 4,above 90%
same,separation between Bk and Cf,"[2]; chelator in place of 343HOPO, acidic conditions",no separation at all
same,log β111,[3]; I=2.0 M at 25° C.,22.56
same,% Extraction,[4]; pH 0.40,95.24%
same,% Extraction,[4]; pH 1.27,4.08%
same,% Extraction,[4]; pH 1.84,1.17%
same,% Extraction,[4]; pH 2.55,0.63%
same,% Extraction,[4]; pH 2.75,0.73%
same,% Extraction,[4]; pH 3.45,0.65%
same,% Extraction,[4]; pH 4.29,0.29%
same,Last pKa,[5],10.4
same,SFAm/Ac,[6]; HDEHP/DTPA-HNO3 system,below 10
same,SFGd/Ac,[6]; HDEHP/DTPA-HNO3 system,"< 5,300"
same,maximum metal extraction of Ac(III),[6]; around pH 1.5,49%
same,extraction of Ac(III),[6]; at pH 4,less than 10%
same,SFAc/Gd,[6]; pH 0.8 (±0.1),<10^−3
same,SFAc/Am,[6]; pH 0.9 (±0.1),5.83 * 10^−2
same,SFAc/Am,[6]; pH 1.5 (±0.1),2.70 * 10^−1
same,SFAc/Gd,[6]; pH 1.5 (±0.1),<10^−3
same,SFAc/Am,[6]; pH 3.5 (±0.1),6.86 * 10^−2
same,SFAc/Gd,[6]; pH 3.5 (±0.1),<10^−3
same,SFAc/Am,[6]; pH 4.0 (±0.1),1.11 * 10^−1
same,SFAc/Gd,[6]; pH 4.0 (±0.1),<10^−3
